Legend:
[1] = target: PI3Kδ (Homo sapiens, UniProt O00329); test: PI3Kδ kinase assay (HTRF); format: biochemical; conditions: symbols ++ / +; read-out: PI3Kδ Inhibition Activity (IC50 class)
Procedure: The PIP3 product is detected by displacement of biotin-PIP3 from an energy transfer complex consisting of Europium labeled anti-GST monoclonal antibody, a GST-tagged pleckstrin homology (PH) domain, biotinylated PIP3 and Streptavidin-Allophycocyanin (APC). […] The PIP3 product formed by PI 3-Kinase(h) activity displaces biotin-PIP3 from the complex resulting in a loss of energy transfer, and thus, a decrease in signal.
First, the kinase reaction with PIP2 substrate is carried out in the presence of ATP, and the reaction is quenched with stop Solution, and then, finally detect by adding Detection Mixture followed by incubation.
HEPES 50 mM (pH7.0), NaN3 0.02%, BSA 0.01%, Orthovanadate 0.1 mM, 1% DMSO.
Detection buffer: HEPES 10 mM (pH7.0), BSA 0.02%, KF 0.16 M, EDTA 4 mM.
10 μM PIP2 substrate (PI(4,5)P2)
10 μM ATP under standard conditions
1. Prepare substrate in freshly prepared Reaction Buffer.
2. Deliver kinase into the substrate solution and gently mix.
3. Deliver compounds in 100% DMSO into the kinase reaction mixture by Acoustic technology (Echo550; nanoliter range), incubate for 10 min at room temperature.
4. Deliver ATP into the reaction mixture to initiate the reaction.
5. Incubate for 30 min at 30° C.
6. Quench the reaction with Stop Solution.
7. Add Detection Mixture, and incubate for overnight.
The emission ratio is converted into μM PIP3 production based on PIP3 standard curves.
The nonlinear regression to obtain the standard curve and IC50 values are performed using Graphpad Prism software.

[2] = test system: Leukemia Cell Line HL-60(TB); format: cell-based; conditions: Homo sapiens; HL-60(TB); single dose, 10 uM compound concentration; read-out: inhibition of proliferation
[3] = test system: Leukemia Cell Line MOLT-4; format: cell-based; conditions: Homo sapiens; MOLT-4; single dose, 10 uM compound concentration; read-out: inhibition of proliferation
[4] = test system: Melanoma Cell Line UACC-62; test: cells; format: cell-based; conditions: Homo sapiens; UACC-62; single dose, 10 uM compound concentration; read-out: inhibition of proliferation
[5] = test system: Ovarian Cell Line NCI/ADR-RES; test: cells; format: cell-based; conditions: Homo sapiens, single dose, 10 uM compound concentration, read-out: inhibition of proliferation
[6] = test system: Breast Cancer Cell Line HS 578T; format: cell-based; conditions: Homo sapiens; HS 578T; single dose, 10 uM compound concentration; read-out: inhibition of proliferation
[7] = test system: Breast Cancer Cell Line BT-549; test: cells; format: cell-based; conditions: Homo sapiens; BT-549; single dose, 10 uM compound concentration; read-out: inhibition of proliferation

Sequence of PI3Kδ (O00329 whole entry): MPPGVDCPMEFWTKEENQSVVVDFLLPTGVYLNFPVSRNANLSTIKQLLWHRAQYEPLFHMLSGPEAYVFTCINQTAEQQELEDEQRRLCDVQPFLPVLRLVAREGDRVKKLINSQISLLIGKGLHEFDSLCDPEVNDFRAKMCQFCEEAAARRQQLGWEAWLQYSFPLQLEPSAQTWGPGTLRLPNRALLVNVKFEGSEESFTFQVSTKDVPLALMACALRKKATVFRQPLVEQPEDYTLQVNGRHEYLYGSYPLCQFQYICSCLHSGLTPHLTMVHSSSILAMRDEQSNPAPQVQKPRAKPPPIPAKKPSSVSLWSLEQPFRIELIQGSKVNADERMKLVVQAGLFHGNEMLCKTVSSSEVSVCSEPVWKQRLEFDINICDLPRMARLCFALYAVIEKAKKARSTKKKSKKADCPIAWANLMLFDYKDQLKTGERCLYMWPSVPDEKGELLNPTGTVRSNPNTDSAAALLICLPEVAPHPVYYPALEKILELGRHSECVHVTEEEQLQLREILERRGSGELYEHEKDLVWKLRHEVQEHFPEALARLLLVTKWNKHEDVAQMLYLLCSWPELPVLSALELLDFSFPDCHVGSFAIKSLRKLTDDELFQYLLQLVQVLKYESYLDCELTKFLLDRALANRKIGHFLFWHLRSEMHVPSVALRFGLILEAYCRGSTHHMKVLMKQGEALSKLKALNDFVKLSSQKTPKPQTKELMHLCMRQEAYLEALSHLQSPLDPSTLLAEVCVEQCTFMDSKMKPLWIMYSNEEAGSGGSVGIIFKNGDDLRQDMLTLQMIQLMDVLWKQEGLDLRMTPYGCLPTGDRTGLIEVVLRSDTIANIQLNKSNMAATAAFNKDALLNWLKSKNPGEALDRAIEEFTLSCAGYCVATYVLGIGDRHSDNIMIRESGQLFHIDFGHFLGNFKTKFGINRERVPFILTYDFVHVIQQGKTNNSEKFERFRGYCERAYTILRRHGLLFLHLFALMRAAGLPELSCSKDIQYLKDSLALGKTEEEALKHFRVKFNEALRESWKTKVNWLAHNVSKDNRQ
Sequence of PI3Kδ (P27986 whole entry partner): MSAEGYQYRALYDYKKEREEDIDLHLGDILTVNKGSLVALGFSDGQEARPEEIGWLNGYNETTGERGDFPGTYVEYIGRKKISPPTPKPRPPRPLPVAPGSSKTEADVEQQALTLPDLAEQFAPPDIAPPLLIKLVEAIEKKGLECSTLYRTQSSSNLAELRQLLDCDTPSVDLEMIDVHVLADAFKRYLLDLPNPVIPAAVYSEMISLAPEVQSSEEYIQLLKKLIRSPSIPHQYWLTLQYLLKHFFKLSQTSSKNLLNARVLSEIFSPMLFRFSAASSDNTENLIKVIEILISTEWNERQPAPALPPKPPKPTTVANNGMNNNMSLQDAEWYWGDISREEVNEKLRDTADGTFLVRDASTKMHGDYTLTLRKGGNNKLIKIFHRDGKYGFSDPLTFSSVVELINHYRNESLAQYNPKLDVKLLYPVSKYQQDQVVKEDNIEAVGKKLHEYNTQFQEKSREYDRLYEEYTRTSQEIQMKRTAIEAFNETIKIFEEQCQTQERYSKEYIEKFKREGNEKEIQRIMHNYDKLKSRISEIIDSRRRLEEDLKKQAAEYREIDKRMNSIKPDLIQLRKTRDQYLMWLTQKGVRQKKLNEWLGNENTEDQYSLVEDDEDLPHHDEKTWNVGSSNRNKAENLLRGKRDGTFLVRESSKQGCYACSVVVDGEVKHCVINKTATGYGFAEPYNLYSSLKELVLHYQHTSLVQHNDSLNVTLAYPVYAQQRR

CC[C@H](Nc1nc(N)nc(C)c1C#N)c1nc2cccc(CN(C)c3ncc(C(=O)NO)cn3)c2c(=O)n1-c1ccccc1 [LII, (S)-2-(((2-(1-((2-amino-5-cyano-6-methylpyrimidin-4-yl)amino)propyl)-4-oxo-3-phenyl-3,4-dihydroquinazolin-5-yl)methyl)(methyl)amino)-N-hydroxypyrimidine-5-carboxamide] was tested, and the IC50 [1] was less than 100 nM, the inhibition at 10 µM [2] was greater than 50% and the inhibition at 10 µM [3] was greater than 50%. For the same compound, the inhibition at 10 µM [4] was greater than 50%, the inhibition at 10 µM [5] was 25 to 50% and the inhibition at 10 µM [6] was greater than 50%. It also gave an inhibition at 10 µM [7] greater than 50%.
